The record followed here is ChEMBL document CHEMBL3046631, “Synthesis and Structure-Activity Relationships of Dinotefuran Derivatives: Modification in the Nitroguanidine Part” (2004).

For one test, the system named is Nephotettix cincticeps. The experiment in a line: Insecticidal activity against 1 to 3 day-old adult Nephotettix cincticeps (green rice leafhopper) infested in compound-treated rice seedlings assessed as mortality measured after 3 days. Format: functional.
Another test has as its system Laodelphax striatellus. The test is described as follows: Insecticidal activity against 1 to 3 day-old adult Laodelphax striatella (small brown planthopper) infested compound-treated rice seedlings assessed as mortality measured after 3 days. Format: functional.

SMILES strings stand for the structures.

As to `CN(C)/C(=C\[N+](=O)[O-])NCC1CCOC1` (racemic), the LC70 with Nephotettix cincticeps amounted to 1 ppm; in the test on Laodelphax striatellus it was 0.1 ppm.

As for `O=[N+]([O-])/C=C1\NCCN1CC1CCOC1` (racemic), the LC70 is given as 0.1 ppm in the test with Nephotettix cincticeps and 10 ppm in the test with Laodelphax striatellus.

Turning to `CCN/C(=N\[N+](=O)[O-])NCC1CCOC1` (racemic), the LC70 in the test with Nephotettix cincticeps came out at 10 ppm; in the test with Laodelphax striatellus it was 100 ppm.

With `COC(=O)N(CC1CCOC1)/C(=N/[N+](=O)[O-])N(C)Cc1ccccc1` (racemic), the LC70 in the test on Nephotettix cincticeps amounted to 0.1 ppm; with Laodelphax striatellus, 1 ppm.

Take `CS/C(=N\[N+](=O)[O-])NCC1CCOC1` (centres undefined): the LC70 in the test with Nephotettix cincticeps and in the test on Laodelphax striatellus was 10 ppm in each case.

Regarding `CN(C)/C(=N\[N+](=O)[O-])N(C)CC1CCOC1` (racemic), the LC70 in the test with Nephotettix cincticeps and in the test on Laodelphax striatellus was 10 ppm each time.

With `O=[N+]([O-])/N=C1\NCCN1CC1CCOC1` (racemic), the LC70 is listed as 1 ppm with Nephotettix cincticeps and 10 ppm in the test with Laodelphax striatellus.

Consider `CN/C(=C\[N+](=O)[O-])NCC1CCOC1` (racemic), for which the LC70 in the test on Nephotettix cincticeps and in the test with Laodelphax striatellus was 0.1 ppm in each case.

For `CN/C(=N\[N+](=O)[O-])N(C)CC1CCOC1` (racemic), the LC70 in the test with Nephotettix cincticeps and in the test with Laodelphax striatellus was 1 ppm each time.

Consider `CCN(C(C)=O)/C(=N\[N+](=O)[O-])N(CC1CCOC1)C(C)=O` (racemic), for which the LC70 in the test on Nephotettix cincticeps and in the test on Laodelphax striatellus was 10 ppm each time.

For `O=C(c1ccccc1)N1CCCN(CC2CCOC2)/C1=N\[N+](=O)[O-]` (racemic), the LC70 with Nephotettix cincticeps is reported as 0.1 ppm; in the test on Laodelphax striatellus, 10 ppm.

Consider `CS/C(=N\[N+](=O)[O-])N(C)CC1CCOC1` (racemic), for which the LC70 in the test with Nephotettix cincticeps and in the test on Laodelphax striatellus was over 1000 ppm each time.

With `CN1CCCN(CC2CCOC2)/C1=C/[N+](=O)[O-]` (racemic), the LC70 in the test with Nephotettix cincticeps and with Laodelphax striatellus was 10 ppm throughout.

Consider `O=[N+]([O-])/N=C(\NCc1ccccc1)NCC1CCOC1` (racemic), for which the LC70 in the test with Nephotettix cincticeps and in the test on Laodelphax striatellus was over 1000 ppm each time.

For `CC(=O)N(C)/C(=N\[N+](=O)[O-])N(CC1CCOC1)C(C)=O` (racemic), the LC70 in the test with Nephotettix cincticeps and in the test on Laodelphax striatellus was 0.1 ppm each time.

As to `CN(C)/C(=C\[N+](=O)[O-])N(C)CC1CCOC1` (racemic), the LC70 with Nephotettix cincticeps was 10 ppm; in the test on Laodelphax striatellus it was 1 ppm.

Take `CN(C(=O)c1ccccc1)/C(=N\[N+](=O)[O-])N(CC1CCOC1)C(=O)c1ccccc1` (racemic): the LC70 in the test with Nephotettix cincticeps worked out at 0.1 ppm; in the test on Laodelphax striatellus, 1 ppm.

Regarding `COC(=O)N(C)/C(=N\[N+](=O)[O-])N(CC1CCOC1)C(=O)OC` (racemic), the LC70 is 0.1 ppm in the test on Nephotettix cincticeps and 1 ppm in the test with Laodelphax striatellus.

For `CCN(CC1CCOC1)/C(=C/[N+](=O)[O-])NC` (racemic), the LC70 with Nephotettix cincticeps turned out to be 10 ppm; with Laodelphax striatellus it was 1 ppm.

Take `CCN(C)/C(=N\[N+](=O)[O-])NCC1CCOC1` (racemic): the LC70 with Nephotettix cincticeps and in the test on Laodelphax striatellus was 10 ppm each time.

For `N/C(=N\[N+](=O)[O-])NCC1CCOC1` (racemic), the LC70 with Nephotettix cincticeps is listed as 100 ppm; in the test with Laodelphax striatellus, over 1000 ppm.

In the case of `CN1CCCN(CC2CCOC2)/C1=N/[N+](=O)[O-]` (racemic), the LC70 in the test on Nephotettix cincticeps is on record as 10 ppm; with Laodelphax striatellus, 100 ppm.

As for `CC(=O)N/C(=N\[N+](=O)[O-])NCC1CCOC1` (racemic), the LC70 in the test with Nephotettix cincticeps and in the test on Laodelphax striatellus was over 1000 ppm in each case.

With `CCCN(CC1CCOC1)/C(=C/[N+](=O)[O-])NC` (racemic), the LC70 in the test on Nephotettix cincticeps and in the test on Laodelphax striatellus was 10 ppm in each case.

With `C#CCN/C(=C\[N+](=O)[O-])NCC1CCOC1` (racemic), the LC70 with Nephotettix cincticeps and in the test with Laodelphax striatellus was over 1000 ppm throughout.

As to `O=[N+]([O-])/C=C1\NCCCN1CC1CCOC1` (racemic), the LC70 in the test on Nephotettix cincticeps came out at 0.1 ppm; in the test on Laodelphax striatellus, 1 ppm.

`CCN(CC1CCOC1)/C(=N/[N+](=O)[O-])NC` (racemic): the LC70 in the test on Nephotettix cincticeps and in the test on Laodelphax striatellus was 10 ppm each time.

As for `COC(=O)N(CC1CCOC1)/C(=N/[N+](=O)[O-])N(C)C(C)=O` (racemic), the figures for the LC70 with Nephotettix cincticeps and in the test with Laodelphax striatellus were 0.1 ppm and 1 ppm, respectively.

Take `CN/C(=N/CC1CCOC1)N[N+](=O)[O-]` (centres undefined) [DINOTEFURAN]: the LC70 in the test with Nephotettix cincticeps and in the test on Laodelphax striatellus was 0.1 ppm in each case.

Take `CN/C(=C\[N+](=O)[O-])N(C)CC1CCOC1` (racemic): the LC70 in the test on Nephotettix cincticeps and in the test on Laodelphax striatellus was 1 ppm each time.

As for `CN(Cc1ccccc1)/C(=N\[N+](=O)[O-])N(Cc1ccccc1)CC1CCOC1` (racemic), the LC70 with Nephotettix cincticeps and in the test with Laodelphax striatellus was 10 ppm each time.

Consider `CS/C(=C\[N+](=O)[O-])NCC1CCOC1` (racemic), for which the LC70 with Nephotettix cincticeps and with Laodelphax striatellus was over 1000 ppm throughout.

On to `COC(=O)N/C(=N\[N+](=O)[O-])NCC1CCOC1` (racemic), for which the figures for the LC70 with Nephotettix cincticeps and with Laodelphax striatellus were 10 ppm and over 1000 ppm, respectively.

For the compound `O=C(N/C(=N\[N+](=O)[O-])NCC1CCOC1)c1ccccc1` (racemic), the LC70 in the test on Nephotettix cincticeps and in the test on Laodelphax striatellus was over 1000 ppm each time.

With `O=[N+]([O-])/C=C1\NCCCCN1CC1CCOC1` (racemic), the LC70 with Nephotettix cincticeps came to 1 ppm; in the test on Laodelphax striatellus it was 10 ppm.

For the compound `CN(C)/C(=N\[N+](=O)[O-])NCC1CCOC1` (racemic), the LC70 stood at 0.1 ppm in the test with Nephotettix cincticeps and 1 ppm with Laodelphax striatellus.

Turning to `CCN/C(=C\[N+](=O)[O-])NCC1CCOC1` (racemic), the LC70 in the test on Nephotettix cincticeps and in the test with Laodelphax striatellus was 10 ppm in each case.

For `CC(=O)N1CCCN(CC2CCOC2)/C1=N\[N+](=O)[O-]` (racemic), the LC70 in the test with Nephotettix cincticeps was found to be 0.1 ppm; with Laodelphax striatellus, 10 ppm.

`CS/C(=C\[N+](=O)[O-])N(C)CC1CCOC1` (racemic): the LC70 with Nephotettix cincticeps and in the test with Laodelphax striatellus was over 1000 ppm throughout.

In the case of `O=[N+]([O-])/N=C1\NCCCN1CC1CCOC1` (racemic), the LC70 in the test on Nephotettix cincticeps is 0.1 ppm; with Laodelphax striatellus it was 1 ppm.

With `O=[N+]([O-])/N=C1\NCCCCN1CC1CCOC1` (racemic), the LC70 is given as 10 ppm in the test with Nephotettix cincticeps and 100 ppm with Laodelphax striatellus.

As for `CCCN/C(=C\[N+](=O)[O-])NCC1CCOC1` (racemic), the LC70 in the test on Nephotettix cincticeps and with Laodelphax striatellus was 100 ppm each time.
